Where a name gives a salt, the structure may show the parent alone.
Key:
dopamine turnover = assay: Inhibition of dopamine turnover (AMPT-induced dopamine reduction in brain); assay type: in vivo, mice
Description: The inhibition of dopamine turnover was measured in mice. In animals treated with α-methylparatyrosine (AMPT) (250 mg/kg by intraperitoneal route) 15 minutes into the experiment, the dopamine concentration throughout the brain decreases as the test progresses. By administering substances which act on autoreceptors, the dopamine reduction (compared with control animals treated with common salt solution) can be prevented. Test substances are administered at time O of the experiment in a dosage of 5 mg/kg s.c., unless otherwise stated. Four hours and 15 minutes into the experiment the animals are killed and the brains are subjected to dopamine determination using high pressure liquid chromatography with electrochemical detection. This determines the percentage inhibition, caused by the test substance, of the dopamine reduction induced by AMPT.

[1] = tested on: presynaptic dopamine receptors; assay: Inhibition of the exploratory activity of mice (infra-red light barrier cages); assay type: in vivo
Description: The activity was measured in observation cages fitted with an infra-red light barrier. […] Groups of 5 animals are given the test substance, unless otherwise specified, in a dosage of 10 mg/kg by subcutaneous injection. […] In parallel or alternately with groups treated with test substance, control groups treated with common salt are investigated (0.9% solution; 0.1 ml/10 g of body weight by subcutaneous route).

dopamine synthesis = assay: Inhibition of dopamine synthesis (γ-butyrolactone-stimulated DOPA accumulation in corpus striatum); assay type: in vivo
Description: For this purpose, 5 animals are given the test substance in a dosage of 10 mg/kg s.c., unless otherwise stated. […] In order to inhibit the decarboxylation of DOPA, 200 mg/kg of 3-hydroxybenzyl-hydrazinhydrochloride are administered by intraperitoneal route after a further 5 minutes. Forty minutes after administration of the substance the animals are killed and the corpus striatum is prepared. The DOPA content is measured by HPLC with electrochemical detection (standard: dihydroxybenzylamine).
The percentage inhibition, produced by the test substance, of the DOPA accumulation stimulated by γ- butyrolactone compared with the controlled animals treated with 0.9% common salt solution is determined.

[2] = tested on: Rhesus monkeys (MPTP model for Parkinson's disease)
Source text: The discovery of the neurotoxin 1-methyl-4-phenyl-1,2,3,6-tetrahydropyridine (MPTP) (Langston et al., Science 219, 979 (1983)) provided an animal model for Parkinson's disease.
The irreversible neurological syndrome triggered by MPTP in man and in monkeys largely resembles the idiopathic Parkinson's disease in its clinical, pathological, biochemical and pharmacological characteristics (Markey et al., Nature 311, 464 (1984)). The reason for this convincing similarity is the fact that MPTP selectively destroys the small group of dopaminergic nerve cells in the substantia nigra of the brain which are also destroyed by degenerative processes in naturally occurring Parkinson's disease.

[3] = 5 mg/kg s.c., AMPT 250 mg/kg i.p., brain dopamine at 4 hours 15 minutes
[4] = 10 mg/kg s.c., measurement of exploration 75 minutes after administration

Question: What does the source list for CN(C)C1CCc2nc(N)sc2C1.Cl.Cl (stereo not shown) [Substance A, 2-amino-6-dimethylamino-4,5,6,7-tetrahydrobenzthiazol-dihydrochloride]?
Answer: ED50 (dopamine turnover; Mus musculus, sc, 50 % inhibition, curve in the range 0.5-3 mg/kg s.c., read-out: Dosage giving 50 % inhibition of AMPT effect (read off from the dosage/activity curve)): 0.95 mg/kg; % inhibition of AMPT effect (dopamine turnover; at 0.95 mg/kg s.c., read off from the dosage/activity curve (0.5-3 mg/kg s.c.)): 50%; Dosage giving 50 percent inhibition of activity (read off from the dosage/activity curve) ([1]; 50 percent inhibition, curve in the range 1-10 mg/kg s.c.): 2.7 mg/kg s.c.; Inhibition of activity in percent compared with controls treated with common salt ([1]; at 2.7 mg/kg s.c., read off from the dosage/activity curve (1-10 mg/kg s.c.)): 50%; Inhibition of DOPA accumulation in percent compared with controls treated with common salt (dopamine synthesis; at 0.55 mg/kg s.c., read off from the dosage/activity curve (0.1-1.0 mg/kg s.c.)): 50%; ED50 (dopamine synthesis; sc, 50 percent inhibition, curve in the range 0.1-1.0 mg/kg s.c., read-out: Dosage giving 50 percent inhibition of DOPA accumulation (read off from the dosage/activity curve)): 0.55 mg/kg

Question: For Cl.Cl.Nc1nc2c(s1)CC(N1CCCC1)CC2 (stereo not shown) [Substance B, 2-amino-6-pyrrolidino-4,5,6,7-tetrahydrobenzthiazol-dihydrochloride], which “% inhibition of AMPT effect” value (dopamine turnover; [3]) is on record?
Answer: 67%

Question: And the “Inhibition of activity in percent compared with controls treated with common salt” value (from here on “Inhibition of activity in percent”) ([1]; 10 mg/kg s.c., measured one hour after administration)?
Answer: 94%

Question: Which “Inhibition of activity in percent” value [1, 4] does the source give for CCCNC1CCc2nc(N)sc2C1.Cl.Cl (stereo not shown) [Substance C, 2-amino-6-n-propylamino-4,5,6,7-tetrahydrobenzthiazol-dihydrochloride] here?
Answer: 20%

Question: What about the Residual symptoms ([2]; 10-100 μg/kg intramuscular) of the same compound?
Answer: an occasional transient and slight resting tremor and a reduction in rough strength

Question: And the Sedation ([2]; 10-100 μg/kg intramuscular)?
Answer: no sedation

Question: What about the “Circulation in the skin” value ([2]; 10-100 μg/kg intramuscular, compared with before administration) of the same compound?
Answer: appeared to be greater than before

Question: And the “Effect of a fresh administration” value ([2]; after reversion to Parkinson symptoms)?
Answer: again leads to an improvement or substantial removal of the clinically pathological manifestations

Question: And the “Inhibition of DOPA accumulation in percent compared with controls treated with common salt” value (dopamine synthesis; 10 mg/kg s.c., γ-butyrolactone 750 mg/kg i.p., 40 minutes after administration)?
Answer: 60%

Question: With C=CCNc1nc2c(s1)CC(N(C)C)CC2.Cl.Cl (stereo not shown) [Substance D, 2-allylamino-6-dimethylamino-4,5,6,7-tetrahydro-benzthiazol-dihydrochloride] as the compound, how does the “% inhibition of AMPT effect” value (dopamine turnover; [3]) read?
Answer: 52%

Question: What about the “Inhibition of activity in percent” value [1, 4] of the same compound?
Answer: 76%

Question: What does the source list for C=CCN(Cc1ccc(Cl)cc1)C1CCc2nc(N)sc2C1 (stereo not shown) [Substance E, 6-[N-ally-N-(4-chloro-benzyl)-amino]-2-amino-4,5,6,7-tetrahydro-benzthiazol-dihydrochloride]?
Answer: % inhibition of AMPT effect (dopamine turnover; [3]): 32%; Inhibition of activity in percent compared with controls treated with common salt [1, 4]: 56%

Question: For C=CCN(CC=C)C1CCc2nc(N)sc2C1.Cl.Cl (stereo not shown) [Substance F, 2-amino-6-diallylamino-4,5,6,7-tetrahydrobenzthiazol-dihydrochloride], which “Inhibition of activity in percent” value [1, 4] is on record?
Answer: 60%
